According to patent US6384066B1, “Sulphonyltriazol derivatives and their use for combating micro-organisms” (priority 1998, dated 2002):

Assays:
Phytophthora infestans = type: in vivo; conditions: tomato plants, protective spray, application rate 50 g/ha, evaluation 3 days after inoculation; 100% = no infection

Row | SMILES | Efficacy in % (Phytophthora infestans) [%] | melting point [°C]
1 | Cc1noc(C)c1S(=O)(=O)n1nc(Cl)nc1-c1ccccc1 [drawing 94] | 97 | –
2 | Cc1noc(C)c1S(=O)(=O)n1nc(Cl)nc1-c1ccccc1 [Example 1] | – | 70 to 74
